Patent publication US8524702B2, “Substituted benzoazepines as toll-like receptor modulators” (VentiRx Pharmaceuticals, Inc., priority 2009, dated 2013)

Target: T1, TLR8 (Homo sapiens, UniProt Q9NR97)
T1 sequence (Q9NR97 27-1041): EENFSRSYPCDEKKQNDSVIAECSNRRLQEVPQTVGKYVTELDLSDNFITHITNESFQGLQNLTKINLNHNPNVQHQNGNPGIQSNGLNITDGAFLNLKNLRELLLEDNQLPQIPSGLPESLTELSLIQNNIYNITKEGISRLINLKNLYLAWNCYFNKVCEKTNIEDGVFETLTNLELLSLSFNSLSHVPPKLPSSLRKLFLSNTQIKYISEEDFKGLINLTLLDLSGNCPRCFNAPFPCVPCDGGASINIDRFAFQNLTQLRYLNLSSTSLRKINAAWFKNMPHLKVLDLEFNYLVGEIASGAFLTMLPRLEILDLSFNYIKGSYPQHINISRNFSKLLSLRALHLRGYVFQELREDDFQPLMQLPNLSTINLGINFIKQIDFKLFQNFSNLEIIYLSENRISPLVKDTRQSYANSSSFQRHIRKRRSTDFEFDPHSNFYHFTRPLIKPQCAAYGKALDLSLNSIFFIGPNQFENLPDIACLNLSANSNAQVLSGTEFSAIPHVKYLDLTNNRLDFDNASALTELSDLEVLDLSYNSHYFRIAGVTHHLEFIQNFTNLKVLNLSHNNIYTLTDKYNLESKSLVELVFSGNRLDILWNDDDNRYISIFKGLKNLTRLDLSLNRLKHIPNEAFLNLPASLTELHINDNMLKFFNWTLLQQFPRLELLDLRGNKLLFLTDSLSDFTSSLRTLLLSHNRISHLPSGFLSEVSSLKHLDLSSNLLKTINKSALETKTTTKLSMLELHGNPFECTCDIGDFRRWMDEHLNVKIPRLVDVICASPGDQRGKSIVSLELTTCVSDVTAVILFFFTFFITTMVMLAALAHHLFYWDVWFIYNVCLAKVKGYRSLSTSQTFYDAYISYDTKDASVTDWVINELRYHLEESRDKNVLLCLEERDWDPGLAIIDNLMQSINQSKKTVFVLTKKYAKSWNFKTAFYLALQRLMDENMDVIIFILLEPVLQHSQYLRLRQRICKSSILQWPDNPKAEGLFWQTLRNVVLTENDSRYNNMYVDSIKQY
Assay: PBMC assay for TLR8 (TNFα in supernatants by ELISA)
Assay type: cell-based
Set-up: Peripheral blood mononuclear cells (PBMCs) from human blood were isolated; endogenous in cells; host or cells: human PBMCs
Conditions: human PBMCs incubated with compound overnight, MC50 = concentration at which 50% of the maximum induction is seen
Description: Peripheral blood mononuclear cells (PBMCs) from human blood were isolated using BD Vacutainer Cell Preparation Tubes with sodium citrate. Cells were incubated with compound overnight. TLR8 activity was assayed by measuring the amount of TNFα in supernatants by ELISA. TLR7 activity was assayed by measuring the amount of IFNα in supernatants by ELISA (R&D Systems). […] The results of this assay are shown below in Tables 2 and 3.
MC50 numbers are represented as factors of ten, for example, + indicates an MC50 value of ×10^4, or a value in the tens of thousands of nanomolar (nM range); ++ indicates an MC50 value of ×10^3, or a value in the thousands; +++ indicates an MC50 value of ×10^2, or a value in the hundreds; and ++++ indicates an MC50 value of ×10^1 or 10°, or a value in the tens or ones.

EC50 [nM]	SMILES
100 to 1000	CCCNC(=O)C1=Cc2ccc(-c3ccc(C(=O)N4CCCC4)cc3)cc2N=C(N)C1 [Compound 101, (1E,4E)-2-amino-N-propyl-8-(4-(pyrrolidine-1-carbonyl)phenyl)-3H-benzo[b]azepine-4-carboxamide]
100 to 1000	CCCN(C(=O)C1=Cc2ccc(-c3ccc(C(=O)N4CCCC4)cc3)cc2N=C(N)C1)C(C)CC (stereo not shown) [Compound 102, (1E,4E)-2-amino-N-sec-butyl-N-propyl-8-(4-(pyrrolidine-1-carbonyl)phenyl)-3H-benzo[b]azepine-4-carboxamide]
1 to 100	CCCN(CCO)C(=O)C1=Cc2ccc(-c3ccc(C(=O)N4CCCC4)cc3)cc2N=C(N)C1 [Compound 107, (1E,4E)-2-amino-N-(2-hydroxyethyl)-N-propyl-8-(4-(pyrrolidine-1-carbonyl)phenyl)-3H-benzo[b]azepine-4-carboxamide]
1000 to 10000	CCCN(CC(O)CO)C(=O)C1=Cc2ccc(-c3ccc(C(=O)N4CCCC4)cc3)cc2N=C(N)C1 (stereo not shown) [Compound 110, (1E,4E)-2-amino-N-(2,3-dihydroxypropyl)-N-propyl-8-(4-(pyrrolidine-1-carbonyl)phenyl)-3H-benzo[b]azepine-4-carboxamide]
1000 to 10000	NC1=Nc2cc(-c3ccc(C(=O)N4CCCC4)cc3)ccc2C=C(C(=O)N(C2CCNCC2)C2CC2)C1 [Compound 115, (1E,4E)-2-amino-N-cyclopropyl-N-(piperidin-4-yl)-8-(4-(pyrrolidine-1-carbonyl)phenyl)-3H-benzo[b]azepine-4-carboxamide]
1000 to 10000	COCCN(CCOC)C(=O)C1=Cc2ccc(-c3ccc(C(=O)N4CCCC4)cc3)cc2N=C(N)C1 [Compound 120, (1E,4E)-2-amino-N,N-bis(2-methoxyethyl)-8-(4-(pyrrolidine-1-carbonyl)phenyl)-3H-benzo[b]azepine-4-carboxamide]
10000 to 100000	NC1=Nc2cc(-c3ccc(C(=O)N4CCCC4)cc3)ccc2C=C(C(=O)N2CCCC2)C1 [Compound 121, (4-((1E,4E)-2-amino-4-(pyrrolidine-1-carbonyl)-3H-benzo[b]azepin-8-yl)phenyl)(pyrrolidin-1-yl)methanone]
1000 to 10000	NC1=Nc2cc(-c3ccc(C(=O)N4CCCC4)cc3)ccc2C=C(C(=O)N2CCCCC2)C1 [Compound 122, (4-((1E,4E)-2-amino-4-(piperidine-1-carbonyl)-3H-benzo[b]azepin-8-yl)phenyl)(pyrrolidin-1-yl)methanone]
100 to 1000	CCCN(CCC)C(=O)C1=Cc2ccc(-c3ccc(C(=O)N4C[C@H](O)[C@@H](O)C4)cc3)cc2N=C(N)C1 [Compound 129, (1E,4E)-2-amino-8-(4-((3S,4S)-3,4-dihydroxypyrrolidine-1-carbonyl)phenyl)-N,N-dipropyl-3H-benzo[b]azepine-4-carboxamide]
100 to 1000	CCCN(CCC)C(=O)C1=Cc2ccc(-c3ccc(C(=O)N4C[C@@H](O)[C@H](O)C4)cc3)cc2N=C(N)C1 [Compound 130, (1E,4E)-2-amino-8-(4-((3R,4R)-3,4-dihydroxypyrrolidine-1-carbonyl)phenyl)-N,N-dipropyl-3H-benzo[b]azepine-4-carboxamide]
100 to 1000	CCOC(=O)C1=Cc2ccc(-c3ccccn3)cc2N=C(N)C1 [Compound 141, (1E,4E)-ethyl 2-amino-8-(pyridin-2-yl)-3H-benzo[b]azepine-4-carboxylate]
1 to 100	CCOC(=O)C1=Cc2ccc(-c3cccc(C#N)c3)cc2N=C(N)C1 [Compound 145, (1E,4E)-ethyl 2-amino-8-(3-cyanophenyl)-3H-benzo[b]azepine-4-carboxylate]
100 to 1000	CCOC(=O)C1=Cc2ccc(-c3ccc(C#N)cc3)cc2N=C(N)C1 [Compound 146, (1E,4E)-ethyl 2-amino-8-(4-cyanophenyl)-3H-benzo[b]azepine-4-carboxylate]
100 to 1000	CCOC(=O)C1=Cc2ccc(-c3ccc(C(=O)N(CC)CC)cc3)cc2N=C(N)C1 [Compound 155, (1E,4E)-ethyl 2-amino-8-(4-(diethylcarbamoyl)phenyl)-3H-benzo[b]azepine-4-carboxylate]
100 to 1000	CCOC(=O)C1=Cc2ccc(-c3ccc(C(=O)N4CCCCC4)cc3)cc2N=C(N)C1 [Compound 156, (1E,4E)-ethyl 2-amino-8-(4-(piperidine-1-carbonyl)phenyl)-3H-benzo[b]azepine-4-carboxylate]
1000 to 10000	CCCN(CCNS(C)(=O)=O)C(=O)C1=Cc2ccc(-c3ccc(C(=O)N4CCCC4)cc3)cc2N=C(N)C1 [Compound 176, (1E,4E)-2-amino-N-(2-(methylsulfonamido)ethyl)-N-propyl-8-(4-(pyrrolidine-1-carbonyl)phenyl)-3H-benzo[b]azepine-4-carboxamide]
10000 to 100000	CCCN(CCC)C(=O)C1=Cc2ccc(-c3cccc(C(=O)O)c3)cc2N=C(N)C1 [Compound 186, 3-((1E,4E)-2-amino-4-(dipropylcarbamoyl)-3H-benzo[b]azepin-8-yl)benzoic acid]
100 to 1000	CCCN(CCC)C(=O)C1=Cc2ccc(-c3cccc(C(=O)OCC)c3)cc2N=C(N)C1 [Compound 187, Ethyl 3-((1E,4E)-2-amino-4-(dipropylcarbamoyl)-3H-benzo[b]azepin-8-yl)benzoate]
1000 to 10000	CCCN(CCC)C(=O)C1=Cc2ccc(-c3ccc(C(=O)O)cc3)cc2N=C(N)C1 [Compound 188, 4-((1E,4E)-2-amino-4-(dipropylcarbamoyl)-3H-benzo[b]azepin-8-yl)benzoic acid]
100 to 1000	CCCN(CCCF)C(=O)C1=Cc2ccc(-c3ccc(C(=O)N4CCCC4)cc3)cc2N=C(N)C1 [Compound 202, (1E,4E)-2-Amino-N-(3-fluoropropyl)-N-propyl-8-(4-(pyrrolidine-1-carbonyl)phenyl)-3H-benzo[b]azepine-4-carboxamide]
1000 to 10000	CCCN(CCCF)C(=O)C1=Cc2ccc(-c3ccc(C(=O)OCC)cc3)cc2N=C(N)C1 [Compound 208, Ethyl 4-((1E,4E)-2-amino-4-((3-fluoropropyl)(propyl)carbamoyl)-3H-benzo[b]azepin-8-yl)benzoate]
10000 to 100000	CCCN(CCCO)C(=O)C1=Cc2ccc(-c3ccc(C(=O)O)cc3)cc2N=C(N)C1 [Compound 209, 4-((1E,4E)-2-Amino-4-((3-hydroxypropyl)(propyl)carbamoyl)-3H-benzo[b]azepin-8-yl)benzoic acid]
